This is an account of results in ChEMBL document CHEMBL2203232, “Design and discovery of new (3S,5R)-5-[4-(2-chlorophenyl)-2,2-dimethyl-5-oxopiperazin-1-yl]piperidine-3-carboxamides as potent renin inhibitors” (Bioorg Med Chem Lett, 2012).

The target of series [1] is T1, Renin (Macaca fascicularis, UniProt Q6DLS0).
T1 sequence (Q6DLS0 whole entry): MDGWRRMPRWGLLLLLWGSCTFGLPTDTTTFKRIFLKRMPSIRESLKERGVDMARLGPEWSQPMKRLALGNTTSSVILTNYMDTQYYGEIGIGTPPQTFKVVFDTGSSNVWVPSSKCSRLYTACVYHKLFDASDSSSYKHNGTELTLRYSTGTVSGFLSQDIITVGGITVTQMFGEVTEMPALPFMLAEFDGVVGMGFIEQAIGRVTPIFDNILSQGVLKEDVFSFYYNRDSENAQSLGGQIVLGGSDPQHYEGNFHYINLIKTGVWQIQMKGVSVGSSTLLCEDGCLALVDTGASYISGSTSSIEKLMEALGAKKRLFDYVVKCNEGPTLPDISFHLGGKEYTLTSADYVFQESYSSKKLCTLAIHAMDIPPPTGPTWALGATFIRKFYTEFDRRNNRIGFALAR
Put plainly: Inhibition of renin in cynomolgus monkey plasma after 60 mins by competitive radioimmunoassay.

Series [2] addresses T2, Renin (Homo sapiens, UniProt P00797).
T2 sequence (P00797 whole entry): T1 sequence (Q6DLS0 whole entry) with A68T, L214I, A235S
Put plainly: Inhibition of recombinant human renin using Arg-Glu(EDANS)-Ile-His-Pro-Phe-His-Leu-Val-Ile-His-Thr-Lys(DABCYL)-Arg as substrate incubated for 10 mins prior to substrate addition measured after 90 mins by fluorimetric analysis.

The nature of series [3]: Volume of distribution at steady state in Sprague-Dawley rat at 1 mg/kg, iv. Type of series: ADME, organism-based. On the set-up: dose 1 mg/kg, route intravenous. As to conditions: in vivo, read-out: Vdss.
A short description of series [4]: Half life in Sprague-Dawley rat at 1 mg/kg, iv. It is filed as ADME, organism-based. Also on record: dose 1 mg/kg, route intravenous. As to conditions: in vivo.
Series [5] is described as follows: Clearance in Sprague-Dawley rat at 1 mg/kg, iv. Type of series: ADME, organism-based. On the set-up: dose 1 mg/kg, route intravenous. The settings on record: in vivo.
Series [6] can be described thus: AUC (0 to 24 hrs) in Sprague-Dawley rat at 10 mg/kg, po. Type of series: ADME, organism-based. Also on record: time < 24 hr, dose 10 mg/kg, route oral. The settings on record: plasma.
The nature of series [7]: Cmax in Sprague-Dawley rat at 10 mg/kg, po. The settings on record: in vivo. It is filed as ADME, organism-based. On the set-up: dose 10 mg/kg, route oral.
Series [8] in a line: Oral bioavailability in Sprague-Dawley rat at 10 mg/kg. As to conditions: in vivo. Type of series: ADME, organism-based.
Series [9] has as its system Rattus norvegicus. Put plainly: Antihypertensive activity in transgenic rat expressing human angiotensin and renin assessed as reduction in mean arterial blood pressure at 10 mg/kg, po measured up to 24 hrs. As to conditions: Artery. On the set-up: dose 10 mg/kg. Type of series: functional, organism-based.

Changes are numbered by the printed parent chain. Activity calls are given as the source filed them. The rule behind the calls is not given here. A value given as a limit tells only on which side of the number the result lay.

Regarding `CC(C)C[C@@H](NC(=O)[C@@H]1CNC[C@H](N2CC(=O)N(c3ccccc3Cl)CC2(C)C)C1)C(O)C(C)C` (stereo in doubt; 13), the figures for the IC50 in series [1] and in series [2] were 4.8 nM and 2.3 nM, respectively.
Taken in the same sequence, the figures for `CC[C@H](CC(C)C)NC(=O)[C@@H]1CNC[C@H](N2CC(=O)N(c3ccccc3Cl)CC2(C)C)C1` were 16 nM and 2.8 nM.
Turning to `CC(C)CCNC(=O)[C@@H]1CNC[C@H](CN2CC(=O)N(c3ccccc3Cl)CC2(C)C)C1`, the IC50 in series [1] was > 1000 nM.
For `CC(C)C[C@@H](NC(=O)[C@@H]1CNC[C@H](N2CC(=O)N(c3ccccc3Cl)CC2(C)C)C1)C(O)C(C)C` (stereo in doubt; 14), the IC50 was 7.5 nM in series [1] and 2.5 nM in series [2].
On the same counts, the results for `CC(C)C[C@@H](NC(=O)[C@@H]1CNC[C@H](N2CC(=O)N(c3ccccc3Cl)CC2(C)C)C1)C(=O)N(C)C` are 23 nM and 8.4 nM.
Taken in the same sequence, the figures for `CC(C)C[C@@H](NC(=O)[C@@H]1CNC[C@H](N2CC(=O)N(c3ccccc3Cl)CC2(C)C)C1)c1ccccc1` were 9 nM and 2.1 nM.
`CC(C)CCNC(=O)[C@@H]1CNC[C@H](N2CC(=O)N(c3ccccc3Cl)CC2(C)C)C1`: the IC50 in series [1] was found to be 54 nM.
Regarding `CCC[C@@H](NC(=O)[C@@H]1CNC[C@H](N2CC(=O)N(c3ccccc3Cl)CC2(C)C)C1)c1ccccc1`, the IC50 in series [1] was determined as 18 nM; in [2] it was 2.5 nM.
Taken in the same sequence, the figures for `CC[C@@H](NC(=O)[C@@H]1CNC[C@H](N2CC(=O)N(c3ccccc3Cl)CC2(C)C)C1)c1ccccc1` were 6.6 nM and 2.1 nM.
In series [1], `CC(C)CC(CC(C)C)NC(=O)[C@@H]1CNC[C@H](N2CC(=O)N(c3ccccc3Cl)CC2(C)C)C1` had an IC50 of 10 nM.
Take `CC(C)CCNC(=O)[C@@H]1CNC[C@H](C(=O)N2CC(=O)N(c3ccccc3Cl)CC2(C)C)C1`: the IC50 in series [1] and in series [2] was > 1000 nM throughout.
On to `CCOC[C@@H](CC(C)C)NC(=O)[C@@H]1CNC[C@H](N2CC(=O)N(c3ccccc3Cl)CC2(C)C)C1.O=C(O)/C=C/C(=O)O`, for which the Vd in [3] worked out at 5.8 L/kg. In series [4], the half-life is 192 min. Also, the clearance in series [5] was 31 mL/min/kg. Further, the AUC(0-t) at 24 h in series [6] amounted to 1940 ng·h/mL. The same compound had a Cmax in series [7] of 540 ng/mL. Also, the IC50 in [1] came to 1.4 nM; in series [2] it was 1.3 nM. The bioavailability in series [8] stood at 45%. Further, the result in series [9] was Active.
Take `CC(C)C[C@@H](NC(=O)[C@@H]1CNC[C@H](N2CC(=O)N(c3ccccc3Cl)CC2(C)C)C1)c1cccnc1`: the IC50 in series [1] was determined as 4.2 nM; in series [2] it was 2.1 nM.

One may read the IC50 as the midpoint of a concentration-inhibition curve. As usually defined, the half-life is how long it takes for the measured level to halve. In general, clearance refers to the rate of elimination divided by the concentration. Usually AUC(0-t) stands for exposure summed from dosing to a finite time, without extrapolation to infinity. For orientation: Cmax means the maximum level reached in the sampled fluid or tissue. The term bioavailability denotes the share of a dose that reaches the circulation, judged against a reference dose that is usually intravenous.
